In patent US11160826B1, “Cholesterol lowering drugs for the treatment of hepatic encephalopathy” (United States Government as represented by the Department …, priority 2017, dated 2021):
“Also recorded” adds a separate entry of the source.

How the values were obtained:
[1] = tested on: AOM-induced acute liver failure; assay: Neurological score and time to coma in the AOM mouse model of acute liver failure / hepatic encephalopathy; assay type: in vivo, C57Bl/6 mice; settings: ICV infusion started 3 days prior to AOM; for neurological decline (neurological score): AOM-treated mice (100 mg/kg ip), 100 mg/kg; for time taken to reach hepatic coma: AOM-treated mice
Protocol: (§1) Acute liver failure and HE was induced using the hepatotoxin azoxymethane (AOM) as previously described (McMillian, M. et al. (2016) Am. J. Pathol. 186(2): 312-23; McMillin, M. et al. Front Cell Neurosci. (2017) 11: 191; McMillin, M. et al. (2014) Journal of Hepatology 6(1): 1260-6; McMillin, M. et al. (2016) J. Neuroinflammation 13(1): 198). Briefly, C57Bl/6 or Cyp7A1−/− mice were injected with AOM (100 mg/kg ip) and placed on heating pads set to 37° C. to ensure normothermia. To reduce serum and cortical bile acid levels, C57Bl/6 mice were fed a diet supplemented with 2% cholestyramine (Dyets Inc.; Bethelhem, Pa.), or the control diet AIN-93G, for 3 days prior to the injection of AOM. […] This same approach was used to infuse 2-hydroxypropyl-β-cyclodextrin (2-HβC; 6 mg/kg/day, MilliporeSigma) to inhibit cholesterol accumulation. The infusion cannulas were implanted using the co-ordinates AP −0.34, ML −1.0, DV −2.0. This surgery was performed 3 days prior to the injection of AOM to allow the mice to recover prior to the onset of acute liver failure to minimize mortality.
Starting at 12 hr after injection, mice were monitored at least every 2 hours for body temperature, weight and neurological score as previously described (McMillin, M. et al. Front Cell Neurosci. (2017) 11: 191; McMillin, M. et al. (2016) J. Neuroinflammation 13(1): 198). The neurological score was assessed by an investigator blind to the treatment groups and is a summation of the scores given for the following parameters: pinna reflex, corneal reflex, tail flexion, escape response, righting reflex and gait. Each parameter was assigned a score between 2 (normal) and 0 (absence of reflexes and presence of severe ataxia), and summed to give a neurological score out of 12. At approximately 16 hours after AOM injection, the gait of these experimental mice was further examined using ventral plane imaging technology (DigiGait, Mouse Specifics Inc, Framingham, Mass., USA) which images the underside of animals walking atop a motorized, transparent treadmill belt thereby generating digital paw prints. These paw prints were analyzed using DigiGait Analysis and Imager software (Mouse Specifics Inc, Framingham, Mass., USA) and measures of neuromuscular function were quantified, including the paw angle in fore- and hind limbs (to measure the degree of external rotation), gait symmetry (ratio of forelimb stepping frequency to hindlimb stepping frequency) and the ataxia coefficient for fore and hind limbs (calculated by [maximum stride length−minimum stride length]/average stride length). […]

[2] = tested on: AOM-induced acute liver failure; assay: DigiGait ventral plane gait analysis of AOM-treated mice; assay type: in vivo, C57Bl/6 mice; settings: approximately 16 hours after AOM injection
Protocol: as §1
Starting at 12 hr after injection, mice were monitored at least every 2 hours for body temperature, weight and neurological score as previously described (McMillin, M. et al. Front Cell Neurosci. (2017) 11: 191; McMillin, M. et al. (2016) J. Neuroinflammation 13(1): 198). The neurological score was assessed by an investigator blind to the treatment groups and is a summation of the scores given for the following parameters: pinna reflex, corneal reflex, tail flexion, escape response, righting reflex and gait. […] These paw prints were analyzed using DigiGait Analysis and Imager software (Mouse Specifics Inc, Framingham, Mass., USA) and measures of neuromuscular function were quantified, including the paw angle in fore- and hind limbs (to measure the degree of external rotation), gait symmetry (ratio of forelimb stepping frequency to hindlimb stepping frequency) and the ataxia coefficient for fore and hind limbs (calculated by [maximum stride length−minimum stride length]/average stride length).

AOM-induced liver damage = assay: Assessment of liver damage and function (H&E, plasma ALT, AST); assay type: in vivo, C57Bl/6 mice; settings: 20 hour post-AOM injection; central (ICV) infusion
Protocol: as §1, with “This surgery was performed 3 days prior to the injection of AOM to allow the mice to recover prior to the onset of acute liver failure to minimize mortality.” left out
Liver damage was assessed by H&E staining according to previously published protocols (McMillin, M. et al. (2017) Front Cell Neurosci. 11: 191). […]
Liver function was assessed by measuring plasma alanine aminotransferase (ALT) and aspartate aminotransferase (AST) using the IDEXX Catalyst One machine from IDEXX Laboratories, Inc (Westbrook, […].).

cholesterol = assay: Measurement of brain cholesterol (total/free kit, Nile Red, Filipin III staining); assay type: in vivo, C57Bl/6 mice
Protocol: as §1
Total, free and esterified cholesterol was assessed in brain homogenates using a BioVision Total Cholesterol and Cholesteryl Ester Assay Kit following the instructions from the vendor. The subcellular location of cholesterol was assessed using Nile Red staining (for intracellular cholesterol (Pol, A. et al. (2001) J. Cell Biol. 152(5): 1057-70)) and Filipin III staining (for membrane bound cholesterol (Vanier and Latour (2015) Methods Cell Biol. 126: 357-75)). Briefly, mice were transcardially perfused with ice-cold phosphate buffered saline (PBS), followed by 4% paraformaldehyde (PFA) in PBS. Whole brains were rapidly removed and post-fixed in PFA overnight at 4° C. Brains were cryoprotected in 30% sucrose (in PBS) and embedded in OCT compound. Thirty micrometer sections were cut through the frontal cortex region; sections were rinsed in PBS and further fixed in 4% PFA for 10 minutes at room temperature. Free-floating sections were incubated with Filipin III (0.5 μg/mL in 10% bovine serum albumin/PBS) for 2 hours at room temperature, or with Nile Red (10 μg/mL in PBS) for 30 minutes at room temperature. Sections were washed in PBS, mounted onto microscope slides and imaged using a Bio-Rad Zoe™ Fluorescent Cell Imager (Hercules, Calif.). Field images were quantified for percent-positive area of Nile Red or Filipin III staining using ImageJ software (National Institutes of Health, Bethesda, Md.).

[3] = tested on: models of Niemann-Pick Type C disease; settings: Davidson et al. 2009; cited from earlier work
[4] = tested on: AOM-induced acute liver failure; settings: mouse model of acute liver failure, McMillin et al. 2016; cited from earlier work
Cyp46A1 = assay: Expression of Cyp46A1 in primary cortical neuronal culture; assay type: cell-based, mouse; settings: 10 μM with 10 μM DCA, 24 hr
Excerpt: Primary cortical neurons were isolated and cultured using methodology previously described (McMillin, M. et al. (2014) Journal of hepatology 61(6): 1260-6). Primary neurons were isolated from P1 mouse pups. Mice were decapitated and whole brains were removed. The cortex was isolated and meninges and dura were removed. Cortical tissue was mechanically disrupted and filtered through a 100 μm filter. Neurons were pelleted by centrifugation at 1400 g. Neurons were suspended in media and plated on 12-well plates with 750,000 cells per well. After 24 hours, cells were washed and media was replaced and supplemented with 2% B27 growth supplement. […] At this point, cells were lysed and used for immunoblot or RTPCR analyses.
RNA was extracted from tissue or primary neurons using an RNeasy Mini Kit (Qiagen, Germantown, Md.) according to the manufacturer's instructions. Synthesis of cDNA was accomplished using a Bio-Rad iScript™ cDNA Synthesis Kit. […]
Specific antibodies against Cyp46A1 and β-actin were used. […] Data are expressed as fold change in fluorescent band intensity of target antibody divided by β-actin or GAPDH, which are used as loading controls. […] Band intensity quantifications were performed using ImageJ software.

[5] = listed as 2-hydroxypropyl-cyclodextrin
[6] = AOM-treated mice, coma time point, pretreatment from 3 days prior to AOM

2-hydroxypropyl-β-cyclodextrin [2-HβC]
neurological decline (neurological score) [1]: significantly delayed the neurological decline; also recorded: reduces neurological decline | neurological decline (neurological score) [1, 5]: dramatically delayed the onset of neurological complications | time taken to reach hepatic coma [1]: increased the time taken to reach hepatic coma | time taken to reach hepatic coma [1, 5]: increased the time it took the mice to reach hepatic coma | ataxia co-efficient of fore and hind limbs [2]: returned the ataxia co-efficient back to control levels | gait symmetry (ratio of forelimb to hind limb stepping frequency) [2]: returned the gait symmetry to control levels | paw angle of fore and hind limbs (degree of external rotation) [2]: reduced the paw angle of AOM-treated mice to values similar to control | AOM-induced liver damage (H&E staining, ALT, AST) (AOM-induced liver damage): does not have any hepatoprotective effects; also recorded: does not influence liver function | cortex cholesterol accumulation (cholesterol; AOM-treated mice, FIG. 17 legend): reduced | AOM-induced increase in Filipin III staining (membrane-bound cholesterol) in the cortex (cholesterol; [6]): attenuated the AOM-induced increase | AOM-induced increase in Nile Red staining (intracellular cholesterol) in the cortex (cholesterol; [6]): attenuated the AOM-induced increase | AOM-induced increase in free cholesterol content in the cortex (cholesterol; [6]): did prevent the AOM-induced buildup | AOM-induced increase in total cholesterol content in the cortex (cholesterol; [6]): did prevent the AOM-induced buildup | basal levels of cholesterol in the cortex (cholesterol; vehicle-treated mice, infusion into the brain): did not decrease | excessive cholesterol buildup in the brain [3]: prevent excessive cholesterol buildup in the brain

C[C@H](CCC(=O)O)[C@H]1CC[C@H]2[C@@H]3[C@H](O)C[C@@H]4C[C@H](O)CC[C@]4(C)[C@H]3C[C@H](O)[C@]12C [cholic acid]
neurological decline associated with acute liver failure (previous studies) [4]: worsened the neurological decline

C/C=C1\C(=O)C[C@H]2[C@@H]3CCC4=CC(=O)CC[C@]4(C)[C@H]3CC[C@]12C [guggulsterone, Guggulsterone]
DCA-induced decrease of Cyp46A1 expression in primary neurons (Cyp46A1): could be prevented by pre-treatment
